# In PMC5218480 (PLoS ONE, 2017):
# System: MV-4-11 cells
# Experiment: Gene expression microarray analysis (Affymetrix PrimeView) and GSEA
# Type: cell-based, human
# Parameters: RFU PODN (11730768_x_at) / Fold change /veh PODN (11730768_x_at) / RFU LINC00158 (11744669_a_at) / Fold change /veh LINC00158 (11744669_a_at) / RFU DUSP10 (11751237_a_at) / Fold change /veh DUSP10 (11751237_a_at) / RFU ID3 (11757404_x_at) / Fold change /veh ID3 (11757404_x_at) / RFU PLEKHG5 (11737974_s_at) / Fold change /veh PLEKHG5 (11737974_s_at) / RFU LRRC4B (11730491_at) / Fold change /veh LRRC4B (11730491_at) / RFU GIMAP4 (11747438_a_at) / Fold change /veh GIMAP4 (11747438_a_at) / RFU KRT8 (11758183_x_at) / Fold change /veh KRT8 (11758183_x_at) / RFU CNN1 (11734310_a_at) / Fold change /veh CNN1 (11734310_a_at) / RFU VPS37D (11726825_at) / Fold change /veh VPS37D (11726825_at) / RFU C10orf10 (11716522_x_at) / Fold change /veh C10orf10 (11716522_x_at) / RFU KIR2DL2 /// KIR2DL4 /// KIR2DL5A /// KIR2DL5B /// KIR2DS1 /// KIR2DS2 /// KIR2DS3 /// KIR2DS4 /// KIR3DL3 /// KIR3DL3 /// KIR3DS1 (11738374_at) / Fold change /veh KIR2DL2 /// KIR2DL4 /// KIR2DL5A /// KIR2DL5B /// KIR2DS1 /// KIR2DS2 /// KIR2DS3 /// KIR2DS4 /// KIR3DL3 /// KIR3DL3 /// KIR3DS1 (11738374_at) / RFU C1QL1 (11718748_at) / Fold change /veh C1QL1 (11718748_at) / RFU TMPRSS4 (11747572_a_at) / Fold change /veh TMPRSS4 (11747572_a_at) / RFU HAMP (11756126_x_at) / Fold change /veh HAMP (11756126_x_at) / RFU RNFT2 (11725882_a_at) / Fold change /veh RNFT2 (11725882_a_at) / RFU NR4A2 (11747474_a_at) / Fold change /veh NR4A2 (11747474_a_at) / RFU ABCC12 (11746883_a_at) / Fold change /veh ABCC12 (11746883_a_at) / RFU TMEM136 (11760407_x_at) / Fold change /veh TMEM136 (11760407_x_at) / RFU CLDN22 /// WWC2 (11732394_at) / Fold change /veh CLDN22 /// WWC2 (11732394_at) / RFU HLA-DPB1 (11760878_x_at) / Fold change /veh HLA-DPB1 (11760878_x_at) / RFU SPINT1 (11716480_a_at) / Fold change /veh SPINT1 (11716480_a_at) / RFU GAP43 (11754022_s_at) / Fold change /veh GAP43 (11754022_s_at) / RFU A4GNT (11735810_at) / Fold change /veh A4GNT (11735810_at) / RFU PRB3 (11715151_x_at) / Fold change /veh PRB3 (11715151_x_at) / RFU TUBB4B (11761932_at) / Fold change /veh TUBB4B (11761932_at) / RFU CAPN14 (11732068_a_at) / Fold change /veh CAPN14 (11732068_a_at) / RFU TMCC2 (11721928_a_at) / Fold change /veh TMCC2 (11721928_a_at) / RFU IRGQ (11745062_a_at) / Fold change /veh IRGQ (11745062_a_at) / RFU FAM174B (11720279_a_at) / Fold change /veh FAM174B (11720279_a_at) / RFU TMPRSS4 (11748680_a_at) / Fold change /veh TMPRSS4 (11748680_a_at) / RFU FAM212B (11763350_a_at) / Fold change /veh FAM212B (11763350_a_at) / RFU PLEKHG5 (11743358_a_at) / Fold change /veh PLEKHG5 (11743358_a_at) / RFU ZSCAN30 (11745921_a_at) / Fold change /veh ZSCAN30 (11745921_a_at) / RFU CMKLR1 (11741424_a_at) / Fold change /veh CMKLR1 (11741424_a_at) / RFU LOC101060620 /// MAPK8IP1 (11723275_at) / Fold change /veh LOC101060620 /// MAPK8IP1 (11723275_at) / RFU SPTSSB (11747773_x_at) / Fold change /veh SPTSSB (11747773_x_at) / RFU PRSS12 (11739890_at) / Fold change /veh PRSS12 (11739890_at) / RFU BIN1 (11741810_x_at) / Fold change /veh BIN1 (11741810_x_at) / RFU WNT11 (11732464_a_at) / Fold change /veh WNT11 (11732464_a_at) / RFU C10orf10 (11716521_a_at) / Fold change /veh C10orf10 (11716521_a_at) / RFU C5orf56 (11738089_at) / Fold change /veh C5orf56 (11738089_at) / RFU CYB561 (11721691_x_at) / Fold change /veh CYB561 (11721691_x_at) / RFU ANKRD19P (11752326_a_at) / Fold change /veh ANKRD19P (11752326_a_at) / RFU OR2T12 /// OR2T33 /// OR2T8 (11738714_s_at) / Fold change /veh OR2T12 /// OR2T33 /// OR2T8 (11738714_s_at) / RFU VCAN (11748164_a_at) / Fold change /veh VCAN (11748164_a_at) / RFU JSRP1 (11732532_at) / Fold change /veh JSRP1 (11732532_at) / RFU KRTAP10-11 (11738290_x_at) / Fold change /veh KRTAP10-11 (11738290_x_at) / RFU MYO3A (11730013_a_at) / Fold change /veh MYO3A (11730013_a_at) / RFU EBF3 (11725865_a_at) / Fold change /veh EBF3 (11725865_a_at) / RFU CAMK2N1 (11719241_x_at) / Fold change /veh CAMK2N1 (11719241_x_at) / RFU C5orf56 (11738088_a_at) / Fold change /veh C5orf56 (11738088_a_at) / RFU OLFML3 (11715873_a_at) / Fold change /veh OLFML3 (11715873_a_at) / RFU LOC100653217 /// NTM (11731650_a_at) / Fold change /veh LOC100653217 /// NTM (11731650_a_at) / RFU MAPK11 (11762145_a_at) / Fold change /veh MAPK11 (11762145_a_at) / RFU FIZ1 (11724087_x_at) / Fold change /veh FIZ1 (11724087_x_at) / RFU OASL (11726364_x_at) / Fold change /veh OASL (11726364_x_at) / RFU SOX15 (11748057_x_at) / Fold change /veh SOX15 (11748057_x_at) / RFU CD79A (11719716_a_at) / Fold change /veh CD79A (11719716_a_at) / RFU HIST1H1D (11736915_at) / Fold change /veh HIST1H1D (11736915_at) / RFU CASKIN2 (11723855_a_at) / Fold change /veh CASKIN2 (11723855_a_at) / RFU LOC730098 (11760151_x_at) / Fold change /veh LOC730098 (11760151_x_at) / RFU OR4N2 (11742367_at) / Fold change /veh OR4N2 (11742367_at) / RFU PRRT2 (11749266_a_at) / Fold change /veh PRRT2 (11749266_a_at) / RFU SNX32 (11753110_a_at) / Fold change /veh SNX32 (11753110_a_at) / RFU CDHR5 (11726645_a_at) / Fold change /veh CDHR5 (11726645_a_at) / RFU RCAN1 (11760418_a_at) / Fold change /veh RCAN1 (11760418_a_at) / RFU FAM167A (11723789_a_at) / Fold change /veh FAM167A (11723789_a_at) / RFU FAM26E (11764081_at) / Fold change /veh FAM26E (11764081_at) / RFU ISYNA1 (11749810_s_at) / Fold change /veh ISYNA1 (11749810_s_at) / RFU ACY1 (11761880_at) / Fold change /veh ACY1 (11761880_at) / RFU 11764098_at / Fold change /veh 11764098_at / RFU SAMD14 (11745864_x_at) / Fold change /veh SAMD14 (11745864_x_at) / RFU NPB (11741838_a_at) / Fold change /veh NPB (11741838_a_at) / RFU TMPRSS6 (11731388_a_at) / Fold change /veh TMPRSS6 (11731388_a_at) / RFU KRTAP10-2 (11738614_at) / Fold change /veh KRTAP10-2 (11738614_at) / RFU ARHGAP8 /// PRR5-ARHGAP8 (11727945_x_at) / Fold change /veh ARHGAP8 /// PRR5-ARHGAP8 (11727945_x_at) / RFU KRTAP5-7 /// NADSYN1 (11734609_at) / Fold change /veh KRTAP5-7 /// NADSYN1 (11734609_at) / RFU RASL12 (11751679_a_at) / Fold change /veh RASL12 (11751679_a_at) / RFU CDKN2B (11736163_a_at) / Fold change /veh CDKN2B (11736163_a_at) / RFU PRF1 (11729649_at) / Fold change /veh PRF1 (11729649_at) / RFU, ZNF638 /// ZNF638-IT1 / Fold change vs veh, ZNF638 /// ZNF638-IT1 / RFU, PANK3 / Fold change vs veh, PANK3 / RFU, SH3YL1 / Fold change vs veh, SH3YL1 / RFU, ZEB2 / Fold change vs veh, ZEB2 / RFU, NRIP1 / Fold change vs veh, NRIP1 / RFU, PTTG1IP / Fold change vs veh, PTTG1IP / RFU, CAPN2 / Fold change vs veh, CAPN2 / RFU, MED14 / Fold change vs veh, MED14 / RFU, SNORA58 / Fold change vs veh, SNORA58 / RFU, C1orf63 / Fold change vs veh, C1orf63 / RFU, LRRFIP1 / Fold change vs veh, LRRFIP1 / RFU, NDUFAF7 / Fold change vs veh, NDUFAF7 / RFU, SLC12A2 / Fold change vs veh, SLC12A2 / RFU, IBTK / Fold change vs veh, IBTK / RFU, ESF1 / Fold change vs veh, ESF1 / Fold change vs veh, TMEM50B / RFU, TAOK1 / Fold change vs veh, TAOK1 / RFU, ACBD3 / Fold change vs veh, ACBD3 / RFU, TMA16 / Fold change vs veh, TMA16 / RFU, RWDD3 / Fold change vs veh, RWDD3 / RFU, BCAT1 / Fold change vs veh, BCAT1 / RFU, EDEM3 / Fold change vs veh, EDEM3 / RFU, TMEM33 / Fold change vs veh, TMEM33 / RFU, WDR75 / Fold change vs veh, WDR75 / RFU, AHCTF1 / Fold change vs veh, AHCTF1 / RFU, TFRC / Fold change vs veh, TFRC / RFU, ZDHHC17 / Fold change vs veh, ZDHHC17 / RFU, NOM1 / Fold change vs veh, NOM1 / RFU, ARL8B / Fold change vs veh, ARL8B / RFU, ZBTB11 / Fold change vs veh, ZBTB11 / RFU, TAMM41 / Fold change vs veh, TAMM41 / RFU, KIAA1704 /// LOC100996395 / Fold change vs veh, KIAA1704 /// LOC100996395 / RFU, ING1 / Fold change vs veh, ING1 / RFU, TRMT61B / Fold change vs veh, TRMT61B / RFU, FUBP3 / Fold change vs veh, FUBP3 / RFU, TP53 / Fold change vs veh, TP53 / RFU, TNKS2 / Fold change vs veh, TNKS2 / RFU, ZFP14 / Fold change vs veh, ZFP14 / RFU, ACTR2 / Fold change vs veh, ACTR2 / RFU, PPP3R1 / Fold change vs veh, PPP3R1 / RFU, PIK3R1 / Fold change vs veh, PIK3R1 / RFU, HNRNPA1 / Fold change vs veh, HNRNPA1 / RFU, RNF170 / Fold change vs veh, RNF170 / RFU, ZNF28 / Fold change vs veh, ZNF28 / RFU, RNGTT / Fold change vs veh, RNGTT / RFU, OGT / Fold change vs veh, OGT / RFU, BRD1 / Fold change vs veh, BRD1 / RFU, MARS / Fold change vs veh, MARS / RFU, ZNF655 / Fold change vs veh, ZNF655 / RFU, FAHD1 / Fold change vs veh, FAHD1 / RFU, BDP1 / Fold change vs veh, BDP1 / RFU, LRRCC1 / Fold change vs veh, LRRCC1 / RFU, ARID1A / Fold change vs veh, ARID1A / RFU, ZNF146 / Fold change vs veh, ZNF146 / RFU, ZNF330 / Fold change vs veh, ZNF330 / RFU, GPN3 / Fold change vs veh, GPN3 / RFU, C9orf123 / Fold change vs veh, C9orf123 / RFU, N4BP2L2 / Fold change vs veh, N4BP2L2 / RFU, ARFIP1 / Fold change vs veh, ARFIP1 / RFU, FAM179B / Fold change vs veh, FAM179B / RFU, BCL10 / Fold change vs veh, BCL10 / RFU, UHRF1BP1L / Fold change vs veh, UHRF1BP1L / RFU, BET1 / Fold change vs veh, BET1 / RFU, CNOT2 / Fold change vs veh, CNOT2 / RFU, ZNF268 / Fold change vs veh, ZNF268 / Fold change vs veh, ZNF507 / RFU, DGCR2 / Fold change vs veh, DGCR2 / RFU, WDSUB1 / Fold change vs veh, WDSUB1 / Fold change vs veh, HSP90B1 /// MIR3652 / RFU, ADSS / Fold change vs veh, ADSS / RFU, GK / Fold change vs veh, GK / RFU, ZNF148 / Fold change vs veh, ZNF148 / RFU, TAF9 / Fold change vs veh, TAF9 / RFU, SLC1A5 / Fold change vs veh, SLC1A5 / RFU, SLMO2 / Fold change vs veh, SLMO2 / RFU, ABCC4 / Fold change vs veh, ABCC4 / RFU, LOC101060439 /// RAP1B / Fold change vs veh, LOC101060439 /// RAP1B / RFU, RFX7 / Fold change vs veh, RFX7 / RFU, GTPBP10 / Fold change vs veh, GTPBP10 / RFU, CNEP1R1 / Fold change vs veh, CNEP1R1 / RFU, BIVM-ERCC5 /// ERCC5 / Fold change vs veh, BIVM-ERCC5 /// ERCC5 / RFU, ILF3 / Fold change vs veh, ILF3 / RFU 11762660_at / Fold change /veh 11762660_at / RFU VCAN (11757783_s_at) / Fold change /veh VCAN (11757783_s_at) / RFU DDX43 (11728927_at) / Fold change /veh DDX43 (11728927_at) / RFU KRT8 (11758188_x_at) / Fold change /veh KRT8 (11758188_x_at) / RFU NKD1 (11759106_at) / Fold change /veh NKD1 (11759106_at) / RFU SRD5A1 (11742802_a_at) / Fold change /veh SRD5A1 (11742802_a_at) / RFU TPSAB1 /// TPSB2 (11721975_s_at) / Fold change /veh TPSAB1 /// TPSB2 (11721975_s_at) / RFU GSTM3 (11746129_a_at) / Fold change /veh GSTM3 (11746129_a_at) / RFU IL23R (11737362_x_at) / Fold change /veh IL23R (11737362_x_at) / RFU TMEM51 (11727254_a_at) / Fold change /veh TMEM51 (11727254_a_at) / RFU PIWIL2 (11732686_x_at) / Fold change /veh PIWIL2 (11732686_x_at) / RFU ORM1 (11744905_x_at) / Fold change /veh ORM1 (11744905_x_at) / RFU CCDC152 (11743942_at) / Fold change /veh CCDC152 (11743942_at) / RFU ECM1 (11717891_a_at) / Fold change /veh ECM1 (11717891_a_at) / RFU IL23R (11748794_a_at) / Fold change /veh IL23R (11748794_a_at) / RFU TNFAIP8L3 (11732012_x_at) / Fold change /veh TNFAIP8L3 (11732012_x_at) / RFU MBOAT4 (11741988_at) / Fold change /veh MBOAT4 (11741988_at) / RFU 11764193_at / Fold change /veh 11764193_at / RFU TMEM53 (11763286_at) / Fold change /veh TMEM53 (11763286_at) / RFU MAGEB2 (11727129_at) / Fold change /veh MAGEB2 (11727129_at) / RFU TMEM200A (11744735_a_at) / Fold change /veh TMEM200A (11744735_a_at) / RFU CCDC152 (11751479_a_at) / Fold change /veh CCDC152 (11751479_a_at) / RFU FAM211A (11726209_a_at) / Fold change /veh FAM211A (11726209_a_at) / RFU RGS16 (11746705_a_at) / Fold change /veh RGS16 (11746705_a_at) / RFU VCAN (11755009_s_at) / Fold change /veh VCAN (11755009_s_at) / RFU RHOB (11743442_s_at) / Fold change /veh RHOB (11743442_s_at) / RFU RGS16 (11720943_a_at) / Fold change /veh RGS16 (11720943_a_at) / RFU RGS16 (11720944_at) / Fold change /veh RGS16 (11720944_at) / RFU, VPS4B / Fold change vs veh, VPS4B / RFU, CREB1 / Fold change vs veh, CREB1 / RFU, DNAJC13 / Fold change vs veh, DNAJC13 / RFU, GNAQ / Fold change vs veh, GNAQ / RFU, CDK5R1 / Fold change vs veh, CDK5R1 / RFU, ZRANB3 / Fold change vs veh, ZRANB3 / RFU, CUL4A / Fold change vs veh, CUL4A / RFU, CCNY / Fold change vs veh, CCNY / RFU, UFL1 / Fold change vs veh, UFL1 / RFU, COG3 / Fold change vs veh, COG3 / RFU, DIAPH2 / Fold change vs veh, DIAPH2 / RFU, SKA2 / Fold change vs veh, SKA2 / RFU, AFF3 / Fold change vs veh, AFF3 / RFU, LMF1 / Fold change vs veh, LMF1 / RFU, IPO11 / Fold change vs veh, IPO11 / RFU, DFFB / Fold change vs veh, DFFB / RFU, FOXP1 / Fold change vs veh, FOXP1 / RFU, CARD8 / Fold change vs veh, CARD8 / RFU, STRN3 / Fold change vs veh, STRN3 / RFU, ADK / Fold change vs veh, ADK / RFU, RASSF2 / Fold change vs veh, RASSF2 / RFU, WIPF1 / Fold change vs veh, WIPF1 / RFU, LARP1B / Fold change vs veh, LARP1B / RFU, RASA1 / Fold change vs veh, RASA1 / RFU, RB1 / Fold change vs veh, RB1 / RFU, PPFIA1 / Fold change vs veh, PPFIA1 / RFU, MAT2A / Fold change vs veh, MAT2A / RFU, CCT5 / Fold change vs veh, CCT5 / RFU, WDR92 / Fold change vs veh, WDR92 / RFU, CUX1 / Fold change vs veh, CUX1 / RFU, TTC7A / Fold change vs veh, TTC7A / RFU, TMEM135 / Fold change vs veh, TMEM135 / RFU, DEPTOR / Fold change vs veh, DEPTOR / RFU, CPM / Fold change vs veh, CPM / RFU, DNAJB6 / Fold change vs veh, DNAJB6 / RFU, CACNA2D3 / Fold change vs veh, CACNA2D3 / RFU, DTX4 / Fold change vs veh, DTX4 / RFU, TFCP2 / Fold change vs veh, TFCP2 / RFU, GMCL1 /// GMCL1P1 / Fold change vs veh, GMCL1 /// GMCL1P1 / RFU, AEBP2 / Fold change vs veh, AEBP2 / RFU, SNHG1 /// SNORD22 /// SNORD25 /// SNORD26 /// SNORD27 /// SNORD28 /// SNORD29 /// SNORD31 / Fold change vs veh, SNHG1 /// SNORD22 /// SNORD25 /// SNORD26 /// SNORD27 /// SNORD28 /// SNORD29 /// SNORD31 / Fold change (Aza/veh), C12orf56 (ProbeSet 11735607_a_at) / Fold change (ACY-1035/veh), C12orf56 (ProbeSet 11735607_a_at) / Fold change (Aza/veh), FGFR1OP (ProbeSet 11751329_s_at) / Fold change (ACY-1035/veh), FGFR1OP (ProbeSet 11751329_s_at) / Fold change (Aza/veh), VPS36 (ProbeSet 11739960_a_at) / Fold change (ACY-1035/veh), VPS36 (ProbeSet 11739960_a_at) / RFU SYPL1 (11715823_x_at) / Fold change /veh SYPL1 (11715823_x_at) / RFU IGFBP7 (11715501_s_at) / Fold change /veh IGFBP7 (11715501_s_at) / RFU REEP3 (11722064_at) / Fold change /veh REEP3 (11722064_at) / RFU IGLL1 (11728026_x_at) / Fold change /veh IGLL1 (11728026_x_at): dose or concentration left out as unconfirmed
# Conditions: MV-4-11 cells, 48 hours
compound,measurement,value
Nc1ccc(-c2cccs2)cc1NC(=O)c1ccc2c(c1)cc(C1CC1)n2CCN1CCOCC1 [ACY-1035],Fold change /veh VCAN (11755009_s_at),1.16
